Here are results for 14 compounds from the supplement of paper PMC7840683.

The assay relates to HepaRG. Kind of assay: LDH release cytotoxicity, % of total lysis control; higher = more cytotoxic. To be noted: 48 h. In outline:
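Percent cytotoxicity was scaled between on-plate vehicle and total lysis controls, then averaged over duplicate wells. The cells were single-lot HepaRG on collagen I-coated 96-well plates, exposed for 48 h to eight-point half-log test chemical series topping at 100 µM in serum-free induction medium with 0.5% DMSO. Total lysis wells got 0.1% Triton X, and LDH in 50 µL spent medium was read as resorufin fluorescence (CytoTox-ONE, Tecan Safire).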
(LDH leaks from cells whose membrane has failed.)

± gives the standard deviation of the averaged measurements.

As to `ClC1=C(Cl)C2(Cl)C3C4OC4C(Cl)C3C1(Cl)C2(Cl)Cl` (configuration not stated) [Heptachlor epoxide B], the LDH release cytotoxicity was -4.87 ± 0.88% (0.03162 µM); -4.16 ± 0.083% (0.1 µM); -4.44 ± 0.44% (0.3162278 µM); -3.99 ± 0.81% (1 µM); -3.88 ± 0.66% (3.16228 µM); -3.4 ± 0.55% (10 µM). Further, the LDH release cytotoxicity runs as follows: (31.6228 µM) -3.14 ± 0.91%; (100 µM) -0.787 ± 0.59%.
Turning to `N#Cc1c(Cl)c(Cl)c(Cl)c(C#N)c1Cl` [Chlorothalonil], the LDH release cytotoxicity was -0.0289 ± 0.73% (0.031623 µM); -1.96 ± 3.7% (0.1 µM); -3.42 ± 0.39% (0.316228 µM); -2.72 ± 1.5% (1 µM); -0.469 ± 1.9% (3.16228 µM); 4.78 ± 0.7% (10 µM). Besides, the LDH release cytotoxicity turned out to be 20.5 ± 1.1% (31.6228 µM) and 48.7 ± 34% (100 µM).
On to `CNC(=O)ON=C(SC)C(=O)N(C)C` [Oxamyl], for which the LDH release cytotoxicity was -0.761 ± 0.13% (0.03162 µM); -0.802 ± 0.67% (0.1 µM); -1.45 ± 0.73% (0.3162278 µM); -1.85 ± 0.63% (1 µM); -1.65 ± 0.22% (3.16228 µM); -1.06 ± 0.34% (10 µM). For the same compound, the LDH release cytotoxicity is, setting by setting: (31.6228 µM) -1.05 ± 0.48%; (100 µM) -1.42 ± 0.44%.
As to `CCCCCCCCN(C)CCCCCCCC` [N-Methyldioctylamine], the LDH release cytotoxicity is -0.874 ± 0.42% (0.03162 µM); -1.29 ± 0.46% (0.1 µM); -1.43 ± 0.024% (0.3162278 µM); -1.23 ± 0.32% (1 µM); -0.708 ± 0.21% (3.16228 µM); -1.14 ± 0.69% (10 µM). Further, the LDH release cytotoxicity is -0.369 ± 0.46% (31.6228 µM) and 0.33 ± 0.63% (100 µM).
With `NC(=O)N(O)C1C=CC(Oc2cccc(Oc3ccc(F)cc3)c2)C1` (configuration not stated), the LDH release cytotoxicity is -0.313 ± 0.089% (0.03162 µM); -0.862 ± 0.21% (0.1 µM); -1.12 ± 0.51% (0.3162278 µM); -0.265 ± 0.5% (1 µM); -0.557 ± 0.086% (3.16228 µM); -1.09 ± 0.79% (10 µM). Moreover, the LDH release cytotoxicity is 1.56 ± 0.69% (31.6228 µM) and 19.5 ± 2.4% (100 µM).
In the case of `CCn1nc(C)c2c1C(=O)NCC(c1ccc(O)cc1)=N2`, the LDH release cytotoxicity runs as follows: (0.03162 µM) -0.976 ± 1.2%; (0.1 µM) -1.16 ± 0.44%; (0.3162278 µM) -0.653 ± 0.074%; (1 µM) -0.0547 ± 1%; (3.16228 µM) 0.209 ± 0.17%; (10 µM) 0.546 ± 0.34%. The LDH release cytotoxicity was 1.6 ± 0.75% (31.6228 µM) and 3.89 ± 0.91% (100 µM).
Regarding `CCCCC(C#N)(Cn1cncn1)c1ccc(Cl)cc1` (configuration not stated) [Myclobutanil], the LDH release cytotoxicity is 0.809 ± 1.1% (0.031623 µM); 0.0936 ± 0.35% (0.1 µM); -0.274 ± 0.61% (0.316228 µM); -0.556 ± 0.71% (1 µM); -7.8 ± 0.19% (3.16228 µM); 8.33 ± 0.4% (10 µM). Also, the LDH release cytotoxicity runs as follows: (31.6228 µM) 0.7089 ± 0.0019%; (100 µM) 7.68 ± 2.1%.
Consider `CC(C)CCCCCCc1ccc(O)cc1` [4-Nonylphenol, branched], for which the LDH release cytotoxicity runs as follows: (0.03162 µM) -2.12 ± 0.23%; (0.1 µM) -1.46 ± 0.5%; (0.3162278 µM) -1.72 ± 0.52%; (1 µM) -1.24 ± 0.36%; (3.16228 µM) -1.58 ± 0.073%; (10 µM) -1.23 ± 0.036%. Further, the LDH release cytotoxicity runs as follows: (31.6228 µM) -0.532 ± 0.65%; (100 µM) -0.17 ± 1%.
For `Cc1nn(C)c(Oc2ccccc2)c1C=NOCc1ccc(C(=O)OC(C)(C)C)cc1` [Fenpyroximate (Z,E)], the LDH release cytotoxicity is, setting by setting: (0.03162 µM) -1.39 ± 1.1%; (0.1 µM) -1.596 ± 0.013%; (0.3162278 µM) -2.4 ± 0.59%; (1 µM) -2.65 ± 0.51%; (3.16228 µM) 11 ± 1.3%; (10 µM) 17.19 ± 0.12%. For the same compound, the LDH release cytotoxicity by setting is: (31.6228 µM) 20.7 ± 1.8%; (100 µM) 30.9 ± 2.2%.
As to `Nn1cnnc1` [4-Amino-1,2,4-triazole], the LDH release cytotoxicity (0.0320971 µM) is -2.94 ± 0.43%; the LDH release cytotoxicity (0.1015 µM) was -2.79 ± 0.045%; the LDH release cytotoxicity (0.320971 µM) is -3.1 ± 0.21%; the LDH release cytotoxicity (1.015 µM) was -3.38 ± 1.2%; the LDH release cytotoxicity (3.2097118 µM) was -2.7 ± 0.23%; the LDH release cytotoxicity (10.15 µM) is -3.19 ± 0.35%. The LDH release cytotoxicity is, setting by setting: (32.0971 µM) -3.08 ± 0.13%; (101.5 µM) 0.447 ± 1.1%.
Turning to `O=C(O)C(F)(F)C(F)(F)C(F)(F)C(F)(F)C(F)(F)C(F)(F)F` [Perfluoroheptanoic acid], the LDH release cytotoxicity (0.03162 µM) was -2.26 ± 1%; the LDH release cytotoxicity (0.1 µM) is -2.63 ± 0.69%; the LDH release cytotoxicity (0.3162278 µM) is -3.62 ± 0.96%; the LDH release cytotoxicity (1 µM) was -3.63 ± 0.086%; the LDH release cytotoxicity (3.16228 µM) is -2.82 ± 0.55%; the LDH release cytotoxicity (10 µM) is -2.95 ± 0.085%. In addition, the LDH release cytotoxicity by setting is: (31.6228 µM) -2.44 ± 0.19%; (100 µM) -2.23 ± 0.48%.
As to `CNS(=O)(=O)c1cc(C(=O)N2CCC(CCN3C4CCC3CC(n3c(C)nc5ccccc53)C4)(c3cccc(F)c3)CC2)c(Cl)cc1F` (configuration not stated), the LDH release cytotoxicity by setting is: (0.03162 µM) -1.92 ± 0.56%; (0.1 µM) -0.773 ± 0.51%; (0.3162278 µM) -1.36 ± 0.34%; (1 µM) -1.37 ± 0.31%; (3.16228 µM) -1.08 ± 0.021%; (10 µM) -0.27 ± 0.57%. Besides, the LDH release cytotoxicity was 10.5 ± 0.32% (31.6228 µM) and 23.1 ± 0.81% (100 µM).
Regarding `CC(C)Oc1cc(-n2nc(C(C)(C)C)oc2=O)c(Cl)cc1Cl` [Oxadiazon], the LDH release cytotoxicity by setting is: (0.03162 µM) -0.101 ± 1%; (0.1 µM) -0.564 ± 0.81%; (0.3162278 µM) -0.449 ± 1.2%; (1 µM) 0.329 ± 0.022%; (3.16228 µM) 0.576 ± 0.019%; (10 µM) 0.044 ± 0.0027%. Also, the LDH release cytotoxicity runs as follows: (31.6228 µM) 0.449 ± 0.49%; (100 µM) 13.02 ± 0.12%.
Turning to `CC(O)CCO` (configuration not stated) [1,3-Butanediol], the LDH release cytotoxicity reads like this: (0.03162 µM) -2.25 ± 1.4%; (0.1 µM) -2.15 ± 1.1%; (0.3162278 µM) -2.36 ± 0.29%; (1 µM) -2.52 ± 0.74%; (3.16228 µM) -2.18 ± 0.92%; (10 µM) -2.33 ± 0.35%. Further, the LDH release cytotoxicity is -1.67 ± 0.8% (31.6228 µM) and -0.781 ± 0.99% (100 µM).
